Measured values as given in PMC9305131, “Expanding the Repertoire of Low‐Molecular‐Weight Pentafluorosulfanyl‐Substituted Scaffolds” (Chemmedchem, 2022).
Several values for one entry are separate records, joined by “and”; a condition that tells them apart may be missing. Identical values can stand only once. Entries after “also recorded” stand apart in the source; their conditions may differ. Like-named read-outs stand apart in the source and are kept apart here.

Tests used:
human HDHODH = human HDHODH (Homo sapiens, UniProt Q02127); experiment: HDHODH inhibition, in vitro fluorescence‐based assays run by Reaction Biology; type: biochemical
SARS‐CoV‐2 M^pro = biological target: T1, SARS‐CoV‐2 M^pro (Severe acute respiratory syndrome coronavirus 2, UniProt P0DTD1); experiment: M^Pro inhibition (fluorescence‐based turnover assay / dose response); type: biochemical; conditions: enzyme inhibition; 17: fluorescence‐based turnover assay
T1 construct: M^pro releases the functional polypeptides from the polyproteins by extensive proteolytic processing

HEK293T/17 cells = conditions: for Cytostatic effect (in words): HEK293T/17 cells; for Cytostatic effect at concentrations above: 200–0.4 μM range
Pseudotyped SARS CoV2 = type: cell-based; conditions: HEK293T/17 with ACE2 and TMPRSS2, 48 hours, toxic concentrations excluded, normalised data
VEGFR2 = VEGFR2 (Homo sapiens, UniProt P35968); experiment: Biochemical kinase assay, VEGFR2; conditions: for inhibition at 10 µM: read-out: Percent inhibition at 10 μM; for IC50: n=1, 10‐dose IC50 mode with twofold serial dilutions, starting at 10 μM
Sequence of VEGFR2 (P35968 20-1356): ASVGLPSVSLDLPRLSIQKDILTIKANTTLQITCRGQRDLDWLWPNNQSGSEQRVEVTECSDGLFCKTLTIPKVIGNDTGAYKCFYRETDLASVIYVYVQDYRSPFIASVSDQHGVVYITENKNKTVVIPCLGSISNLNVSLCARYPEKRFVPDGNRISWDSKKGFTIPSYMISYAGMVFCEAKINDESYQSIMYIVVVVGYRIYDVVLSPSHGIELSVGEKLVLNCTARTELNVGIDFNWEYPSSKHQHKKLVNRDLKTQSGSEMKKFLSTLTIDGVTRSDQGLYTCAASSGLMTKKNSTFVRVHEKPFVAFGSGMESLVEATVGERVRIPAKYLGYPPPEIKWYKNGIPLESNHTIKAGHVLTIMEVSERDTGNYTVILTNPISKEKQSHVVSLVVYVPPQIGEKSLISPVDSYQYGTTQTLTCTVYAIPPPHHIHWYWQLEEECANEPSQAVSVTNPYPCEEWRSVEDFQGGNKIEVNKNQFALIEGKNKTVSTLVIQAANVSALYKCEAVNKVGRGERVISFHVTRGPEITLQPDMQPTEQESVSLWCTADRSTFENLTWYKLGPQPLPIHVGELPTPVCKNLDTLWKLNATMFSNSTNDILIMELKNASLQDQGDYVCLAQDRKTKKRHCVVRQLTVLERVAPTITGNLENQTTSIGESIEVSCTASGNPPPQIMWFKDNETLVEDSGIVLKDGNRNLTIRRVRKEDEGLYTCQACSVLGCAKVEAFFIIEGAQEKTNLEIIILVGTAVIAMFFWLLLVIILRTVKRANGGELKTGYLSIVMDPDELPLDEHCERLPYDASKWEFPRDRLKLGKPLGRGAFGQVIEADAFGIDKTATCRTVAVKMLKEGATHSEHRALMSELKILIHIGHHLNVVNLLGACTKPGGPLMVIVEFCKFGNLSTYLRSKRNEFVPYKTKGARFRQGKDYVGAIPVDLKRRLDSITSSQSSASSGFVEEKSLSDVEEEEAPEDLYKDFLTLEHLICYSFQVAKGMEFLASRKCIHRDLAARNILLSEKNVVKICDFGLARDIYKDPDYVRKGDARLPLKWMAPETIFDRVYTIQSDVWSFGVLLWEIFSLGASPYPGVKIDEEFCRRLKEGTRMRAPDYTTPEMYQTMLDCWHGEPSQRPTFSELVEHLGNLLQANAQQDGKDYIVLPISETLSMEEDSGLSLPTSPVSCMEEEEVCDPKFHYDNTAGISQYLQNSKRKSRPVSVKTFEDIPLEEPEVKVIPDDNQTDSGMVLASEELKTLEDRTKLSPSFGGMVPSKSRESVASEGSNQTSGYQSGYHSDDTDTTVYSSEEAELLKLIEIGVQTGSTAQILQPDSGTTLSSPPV

Sequence of human HDHODH (Q02127 whole entry): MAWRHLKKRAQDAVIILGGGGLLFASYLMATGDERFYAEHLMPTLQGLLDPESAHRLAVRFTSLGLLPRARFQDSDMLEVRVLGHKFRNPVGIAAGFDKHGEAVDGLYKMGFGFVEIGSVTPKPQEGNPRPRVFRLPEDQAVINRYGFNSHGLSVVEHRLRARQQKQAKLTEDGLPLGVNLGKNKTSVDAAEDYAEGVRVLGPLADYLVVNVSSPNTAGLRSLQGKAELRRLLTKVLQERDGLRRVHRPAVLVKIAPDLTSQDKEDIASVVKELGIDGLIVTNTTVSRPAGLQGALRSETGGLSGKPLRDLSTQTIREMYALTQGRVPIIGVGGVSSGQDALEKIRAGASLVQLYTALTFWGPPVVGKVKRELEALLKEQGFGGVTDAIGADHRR

N#C/C(C(=O)Nc1ccc(F)cc1)=C(/O)c1ccc(Cl)cc1 [compound 17]
Activity versus HDHODH (in words) (human HDHODH): inactive; also recorded: no affinity | inhibition at 10 µM (human HDHODH; HDHODH, 10 μM, read-out: Percent inhibition at 10 μM): < 10% | IC50 (SARS‐CoV‐2 M^pro): 230 nM | Cells healthy up to (HEK293T/17 cells; HEK293T/17, MTS, 48 hours): up to 50 μM | Cytostatic effect (in words) (HEK293T/17 cells): less cytostatic | Effect on SARS‐CoV‐2 infection of target cells (in words) (Pseudotyped SARS CoV2): enhancing effect

CN1C(=O)C2(CCOCC2)c2cc(S(F)(F)(F)(F)F)ccc21 [11 b, 1‐Methyl‐5‐(pentafluoro‐λ^6‐sulfanyl)‐1,2‐dihydrospiro[indole‐ 3,4′‐oxan]‐2‐one]
melting point: 158 °C

C/C(O)=C(\C#N)C(=O)Nc1ccc(S(F)(F)(F)(F)F)cc1 [compound 16, (2Z)‐2‐Cyano‐3‐hydroxy‐N‐[4‐(pentafluoro‐λ^6‐sulfanyl)phenyl] but‐2‐enamide]
melting point: 167 to 170 °C | IC50 (human HDHODH; IC50, HDHODH inhibition): 27 nM | IC50 (human HDHODH; IC50, individual determinations behind the mean (n=2), HDHODH inhibition): 29 nM and 25 nM | Activity/affinity towards HDHODH compared with Teriflunomide (human HDHODH; relative to Teriflunomide, listed as SF5‐Teriflunomide): approximately twice as active; also recorded: approximately two‐fold greater affinity | Cytostatic effect at concentrations above (HEK293T/17 cells; HEK293T/17, MTS, 48 hours): > 3.1 µM | Cytostatic effect (in words) (HEK293T/17 cells): cytostatic | Cytostatic effect (in words) (HEK293T/17 cells; listed as SF5-teriflunomide): strong cytostatic | Effect on SARS‐CoV‐2 infection of target cells (in words) (Pseudotyped SARS CoV2; listed as SF5-teriflunomide): no effect

CS(=O)(=O)N1CCN(C(=O)c2cccc(S(F)(F)(F)(F)F)c2)CC1 [3 f, (3‐Pentafluoro‐λ^6‐sulfanyl phenyl)(4‐(methylsulfonyl)piperazin‐1‐yl)methanone]
melting point: 159 to 160 °C

O=C1Nc2ccc(S(F)(F)(F)(F)F)cc2C12CCOCC2 [11 a, 5‐(Pentafluoro‐λ^6‐sulfanyl)‐1,2‐dihydrospiro[indole‐3,4′‐ oxan]‐2‐one]
melting point: 247 to 249 °C

O=C(c1cccc(S(F)(F)(F)(F)F)c1)N1CCCCC1 [3 a, [3‐(Pentafluoro‐λ^6‐sulfanyl)phenyl](piperidin‐1‐yl)methanone]
melting point: 88 to 90 °C

O=C(c1cccc(S(F)(F)(F)(F)F)c1)N1CCOCC1 [3 c, [3‐(Pentafluoro‐λ^6‐sulfanyl)phenyl](morpholino)methanone]
melting point: 63 to 64 °C

C/C(O)=C(\C#N)C(=O)Nc1ccc(C(F)(F)F)cc1 [Teriflunomide, reference compound]
Cytostatic effect at concentrations above (HEK293T/17 cells; HEK293T/17, MTS, 48 hours): above 0.78 μM | Cytostatic effect (in words) (HEK293T/17 cells): cytostatic | Cytostatic effect (in words) (HEK293T/17 cells; listed as teriflunomide): strong cytostatic | Effect on SARS‐CoV‐2 infection of target cells (in words) (Pseudotyped SARS CoV2; listed as teriflunomide): no effect

Cc1cc(C)c(/C=C2\C(=O)Nc3ccc(S(F)(F)(F)(F)F)cc32)[nH]1 [8 a, (3Z)‐3‐[(3,5‐Dimethyl‐1H‐pyrrol‐2‐yl)methylidene]‐5‐(pentafluoro‐λ^6‐sulfanyl)‐2,3‐dihydro‐1H‐indol‐2‐ one]
melting point: 203 to 205 °C | inhibition at 10 µM (VEGFR2): 27% | IC50 (VEGFR2): did not manifest sufficient inhibition to generate IC50 values

CC(C)=C1C(=O)Nc2ccc(S(F)(F)(F)(F)F)cc21 [8 b, 5‐(Pentafluoro‐λ^6‐sulfanyl)‐3‐(propan‐2‐ylidene)‐2,3‐dihydro‐1H‐indol‐2‐one]
melting point: 191 to 194 °C

Cc1oncc1C(=O)Nc1ccc(S(F)(F)(F)(F)F)cc1 [compound 15, 5‐Methyl‐N‐[4‐(pentafluoro‐λ^6‐sulfanyl)phenyl]‐1,2‐oxazole‐ 4‐carboxamide]
melting point: 167 to 168 °C | IC50 (human HDHODH; IC50, HDHODH inhibition): 365 nM | Cytostatic effect (in words) (HEK293T/17 cells): cytostatic | Effect on SARS‐CoV‐2 infection of target cells (in words) (Pseudotyped SARS CoV2): satisfactory inhibition of SARS‐CoV‐2 infection

Cc1cc(C)c(/C=C2\C(=O)Nc3cc(S(F)(F)(F)(F)F)ccc32)[nH]1 [9 a, (3Z)‐3‐[(3,5‐Dimethyl‐1H‐pyrrol‐2‐yl)methylidene]‐6‐(pentafluoro‐λ^6‐sulfanyl)‐2,3‐dihydro‐1H‐indol‐2‐one]
melting point: 199 to 201 °C | inhibition at 10 µM (VEGFR2): 23% | IC50 (VEGFR2): did not manifest sufficient inhibition to generate IC50 values
